Data set [1] deals with pAKT (AKTpS473). Description: Immunohistochemistry of RT112 tumors: pAKT. The format is in vivo, female Hsd: Athymic Nude-nu mice. The following applies: 7 days, Compound A 50 mg/kg, Compound B 10 mg/kg, 2 hours after last treatment. How it is done:
(§1) Animals: Experiments are performed in female Hsd: Athymic Nude-nu mice obtained from Harlan Cpb, Germany. Animals are from 8 to 14 weeks of age at treatment start and housed under Optimized Hygienic Conditions in Makrolon type III cages (max. 10 animals per cage) with free access to food and water
(§2) Establishment of RT112 tumors and compound treatments: The RT112 human urinary bladder carcinoma cell line was initially derived from a patient with untreated primary urinary bladder carcinoma in 1973 (Marshall et al. 1977, Masters et al. 1986). RT112 cells are cultured as in Example 1. Tumor establishment is done as in Example 2. Treatments are initiated when the mean tumor volumes are approximately 240 mm^3 (20 days post tumor cells injection).
(§3) Dissection: 2 hours after the last treatment animals are anaesthetized by Forene inhalation narcosis and euthanized by cervical dislocation. Each tumor is dissected, is cut into two equal pieces and is processed for formalin-fixed paraffin embedded sectioning. […]
(§4) Slides are mounted on a Ventana Discovery XT immunostainer and are processed for automated IHC by using a ChromoMAP kit and an OmniMAP anti Rabbit polymer-based amplification system. […] Endogenous peroxidase activities were subsequently quenched by using the ready to use solution from the ChromoMAP kit. […]

Data set [2] deals with RT112 urinary bladder carcinoma. Kind of data set: Antitumor activity against s.c. RT112 tumors in nude mice. The class given is in vivo, female Hsd: Athymic Nude-nu mice. The following applies: for Mean change of tumor volume / Final Tumor Volume: Clarke 1997 analysis table; for Final Tumor Volume: end of 14 days treatment, in mm³ (unit assumed). How it is done: Animals: Experiments are performed in female Hsd: Athymic Nude-nu mice obtained from Harlan Cpb, Germany. Animals are from 8 to 14 weeks of age at treatment start and are housed under Optimized Hygienic Conditions in Makrolon type III cages (max. 10 animals per cage) with free access to food and water
Establishment of RT112 tumors: The RT112 human urinary bladder carcinoma cell line was initially derived from a patient with untreated primary urinary bladder carcinoma in 1973. RT112 cells are cultured as in Example 1. To establish tumors, RT112 cells suspended in Hanks' balanced salt solution (HBSS) containing 50% Matrigel (BD #356234) are injected subcutaneously into the right flank. A total of 5×10^6 cells in 100 μl are injected per animal.
Evaluation of antitumor activity: Treatments are initiated when the mean tumor volumes were approximately 180 mm^3 (14 days post tumor cells injection). Body weights and tumor volumes are recorded twice a week. Tumor volumes are measured with calipers and determined according to the formula length×diameter^2×π/6. In addition to presenting changes of tumor volumes over the course of treatments, antitumor activity is expressed as T/C % (mean change of tumor volume of treated animals/mean change of tumor volume of control animals)×100. Regressions (%) are calculated according to the formula ((mean tumor volume at end of treatment-mean tumor volume at start of treatment)/mean tumor volume at start of treatment)×100.
Preparation of Compound Solutions: Vehicle control is prepared by mixing 250 μl 1-methyl-2-pyrrolidone (“NMP”)(Fluka #69118), 750 μl Polyethylene glycol 300 (“PEG300”)(Fluka, #81162), 500 μl Solutol HS15 (BASF, #51633963) and 1000 μl water.
Statistics: For all tests, the level of significance is set at p<0.05. For tumor volumes, comparisons between treatment groups and vehicle control group are done using one-way ANOVA followed by Dunnett's test. The level of significance of body weight change within a group between the start and the end of the treatment period is determined using a paired t-test. Comparisons of delta body weighs between treatment and vehicle control groups are performed by a one-way ANOVA followed by a post hoc Dunnett's test. Calculations are performed using GraphPad Prism 6 for Windows (GraphPad Software Inc.).
Estimation of drug-drug interaction: an approximation of drug interactions is made using the method described by Clarke R., “Issues in experimental design and endpoint analysis in the study of experimental cytotoxic agents in vivo in breast cancer and other models”, Breast Cancer Res. Treat., 46, 255-78 (1997) (“Clark 1997”). This is applied to ΔTV (Mean tumor volume at the end of the treatment period—mean tumor volume at the beginning of the treatment period).
Upon performance of the foregoing experiment, the results are summarized in the table below: Ten millions RT-112 cells are injected subcutaneously into the right flank of female athymic nude mice on Day 0. On day 14, tumors are measured and mice are randomized into treatment groups with 8 mice per group. […] Statistics on Δ tumor volumes are performed with a one-way ANOVA, post hoc Dunnett's (*p<0.05 vs. vehicle controls) to compare treatment groups against the vehicle control group. For body weights, paired t tests between the weights at the beginning and the end of the treatment period are performed (*p<0.05).
A compound interaction analysis with the method described by Clarke 1997 is conducted. In accordance with this method, the experimental data is interpreted as follows: antagonism is predicted when the calculation AB/C>B/C×A/C, additive interaction is predicted when the calculation AB/C=B/C×A/C, and synergistic when AB/C<B/C×A/C.

Data set [3] concerns FGFR kinase receptors 1-4 (FGFR1, FGFR2, FGFR3, and FGFR4). As to conditions: cited from earlier work.
The test system of data set [4] is pErk1/2 (pMAPK). Kind of data set: Immunohistochemistry of RT112 tumors: pErk1/2 (pMAPK). The class given is in vivo, female Hsd: Athymic Nude-nu mice. As to conditions: 7 days, Compound A 50 mg/kg, Compound B 10 mg/kg, 2 hours after last treatment. How it is done:
as §1, §2, §3, §4

The mark [5] stands for this setting: Compound A 50 mg/kg, Compound B 10 mg/kg, p.o., q24 h, 14 days.

Values joined by “and” are separate entries in the source; they are usually repeats but may differ in a detail not shown here. Equal entries are not always repeated. “Also recorded” adds a separate entry of the source.

With `Cc1nc(NC(=O)N2CCC[C@H]2C(N)=O)sc1-c1ccnc(C(C)(C)C(F)(F)F)c1` [Compound A, (S)-Pyrrolidine-1,2-dicarboxylic acid 2-amide 1-({4-methyl-5-[2-(2,2,2-trifluoro-1,1-dimethyl-ethyl)-pyridin-4-yl]-thiazol-2-yl}-amide)], the “inhibition of pAKT (immunohistochemistry)” value in data set [1] is “strongly inhibits; also recorded: significantly inhibits”. Besides, in data set [2], the “Mean change of tumor volume” value is −2 and the “Final Tumor Volume” value was 179.4. For the same compound, in data set [2] (setting [5]), the “% change of body weight” value was −0.8%; the “Regression (%)” value was 1.1% and −1.1%; the “Survival (survivors/total)” value is 8/8. The “Mean change of body weight (g ± SEM)” value in data set [2] (Compound A 50 mg/kg, Compound B 10 mg/kg, p.o., q24 h, 14 days, *p<0.05 paired t test) is -0.2 ± 0.4 g.

On to `CCN1CCN(c2ccc(Nc3cc(N(C)C(=O)Nc4c(Cl)c(OC)cc(OC)c4Cl)ncn3)cc2)CC1` [Compound B, 3-(2,6-dichloro-3,5-dimethoxy-phenyl)-1-{6-[4-(4-ethylpiperazin-1-l)-phenylamino]-pyrimidin-4-yl}-1-methyl-urea], for which, in data set [3], the “selectivity for FGFR kinase receptors 1-4” value is listed as “highly selective”. Also, the “T/C (%) (change in tumor volume, treated vs vehicle)” value in data set [2] (10 mg/kg p.o. q24 h, 14 days, non-statistically significant) is 54.4%. Further, in data set [2], the “Mean change of tumor volume” value was 145.6 and the “Final Tumor Volume” value was 327.2. For the same compound, in data set [2] (setting [5]), the “Survival (survivors/total)” value is 8/8 and the “T/C (%)” value amounted to 54.4%. In addition, the “Mean change of tumor volume (mm^3 ± SEM)” value in data set [2] (Compound A 50 mg/kg, Compound B 10 mg/kg, p.o., q24 h, 14 days, *p<0.05 vs vehicle) came out at 145.6 ± 66.5 mm^3. Moreover, the “ratio to vehicle control (B/C, A/C, AB/C)” value in data set [2] (based on Final Tumor Volume) was determined as 0.728. For the same compound, in data set [2] (based on Mean change of tumor volume), the “ratio to vehicle control (B/C, A/C, AB/C)” value is on record as 0.544. In data set [4], the “inhibition of pErk1/2 (pMAPK) (immunohistochemistry)” value is listed as “strongly inhibits; also recorded: significantly inhibits”.

These data come from patent US20160095842A1 (priority 2013, published 2016).
